Test results reported in US20260262643A1, “HERBICIDAL BENZOXAZINES” (FMC CORPORATION, priority 2022, published 2026).

Columns and labels:
blackgrass [1] = test: Test A preemergence; assay type: in vivo, Alopecurus myosuroides
Summary of the method: (§1)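 Plants were grown in loam and sand and treated preemergence or postemergence (one- to two-leaf stage, 2–10 cm) with compound in solvent plus surfactant. Response was scored against untreated controls after 10 greenhouse days, where 0 means no effect and 100 complete control.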

corn [2] = test: Test A preemergence; assay type: in vivo, Zea mays
Summary of the method: as §1

foxtail, giant [3] = test: Test A preemergence; assay type: in vivo, Setaria faberi
Summary of the method: as §1

goosegrass [4] = test: Test A preemergence; assay type: in vivo, Eleusine indica
Summary of the method: as §1

kochia [5] = test: Test A preemergence; assay type: in vivo, Bassia scoparia
Summary of the method: as §1

oat, wild [6] = test: Test A preemergence; assay type: in vivo, Avena fatua
Summary of the method: as §1

pigweed, palmer [7] = test: Test A preemergence; assay type: in vivo, Amaranthus palmeri
Summary of the method: as §1

ragweed [8] = test: Test A preemergence; assay type: in vivo, Ambrosia artemisiifolia
Summary of the method: as §1

ryegrass, Italian [9] = test: Test A preemergence; assay type: in vivo, Lolium multiflorum
Summary of the method: as §1

soybean [10] = test: Test A preemergence; assay type: in vivo, Glycine max
Summary of the method: as §1

wheat [11] = test: Test A preemergence; assay type: in vivo, Triticum aestivum
Summary of the method: as §1

blackgrass [12] = test: Test A postemergence; assay type: in vivo, Alopecurus myosuroides
Summary of the method: as §1

corn [13] = test: Test A postemergence; assay type: in vivo, Zea mays
Summary of the method: as §1

foxtail, giant [14] = test: Test A postemergence; assay type: in vivo, Setaria faberi
Summary of the method: as §1

goosegrass [15] = test: Test A postemergence; assay type: in vivo, Eleusine indica
Summary of the method: as §1

kochia [16] = test: Test A postemergence; assay type: in vivo, Bassia scoparia
Summary of the method: as §1

oat, wild [17] = test: Test A postemergence; assay type: in vivo, Avena fatua
Summary of the method: as §1

pigweed, palmer [18] = test: Test A postemergence; assay type: in vivo, Amaranthus palmeri
Summary of the method: as §1

ragweed [19] = test: Test A postemergence; assay type: in vivo, Ambrosia artemisiifolia
Summary of the method: as §1

ryegrass, Italian [20] = test: Test A postemergence; assay type: in vivo, Lolium multiflorum
Summary of the method: as §1

soybean [21] = test: Test A postemergence; assay type: in vivo, Glycine max
Summary of the method: as §1

wheat [22] = test: Test A postemergence; assay type: in vivo, Triticum aestivum
Summary of the method: as §1

galium = test: Test A postemergence; assay type: in vivo, Galium aparine
Summary of the method: as §1

horseweed = test: Test A postemergence; assay type: in vivo, Erigeron canadensis
Summary of the method: as §1

barnyardgrass = test: Test B flooded paddy test; assay type: in vivo, Echinochloa crus-galli; conditions: 250 g ai/ha, Flood, 13 days, 0 to 100 scale (0 no effect, 100 complete control)
Summary of the method: (§2)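 Each species was raised to the 2-leaf stage. At treatment, each pot received floodwater 3 cm deep, with the chemical delivered into the water. Greenhouse holding followed for 13 days, then percent control was estimated visually versus untreated pots.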

ducksalad = test: Test B flooded paddy test; assay type: in vivo, Heteranthera limosa; conditions: 250 g ai/ha, Flood, 13 days, 0 to 100 scale (0 no effect, 100 complete control)
Summary of the method: as §2

rice = test: Test B flooded paddy test; assay type: in vivo, Oryza sativa; conditions: 250 g ai/ha, Flood, 13 days, 0 to 100 scale (0 no effect, 100 complete control)
Summary of the method: as §2

sedge, umbrella = test: Test B flooded paddy test; assay type: in vivo, Cyperus difformis; conditions: 250 g ai/ha, Flood, 13 days, 0 to 100 scale (0 no effect, 100 complete control)
Summary of the method: as §2

[23] = 125 g ai/ha, visual injury after 10 days, 0 to 100 scale, 0 is no effect, 100 is complete control
[24] = 500 g ai/ha, 0 to 100 scale (0 no effect, 100 complete control), 10 days
[25] = 125 g ai/ha, postemergence, 10 days, visual injury, 0 to 100 scale (0 no effect, 100 complete control)
[26] = 500 g ai/ha, Postemergence, 0 to 100 scale
[27] = 500 g ai/ha, postemergence, 10 days, visual injury, 0 to 100 scale (0 no effect, 100 complete control)
[28] = 125 g ai/ha, postemergence, 10 days, 0 to 100 scale, 0 no effect, 100 complete control

C[C@H]1CN(C(=O)c2cc(-n3cncn3)ccc2C(F)(F)F)c2cccc(Cl)c2O1 [Compound 70]
Plant response rating, Blackgrass (blackgrass [1]; [23]): 30
Plant response rating, Blackgrass (blackgrass [1]; [24]): 80
Plant response rating, Corn (corn [2]; [23]): 10
Plant response rating, Corn (corn [2]; [24]): 20
Plant response rating, Foxtail, Giant (foxtail, giant [3]; [23]): 20
Plant response rating, Foxtail, Giant (foxtail, giant [3]; [24]): 100
Plant response rating, Goosegrass (goosegrass [4]; [23]): 70
Plant response rating, Goosegrass (goosegrass [4]; [24]): 100
Plant response rating, Kochia (kochia [5]; [23]): 0
Plant response rating, Kochia (kochia [5]; [24]): 0
Plant response rating, Oat, Wild (oat, wild [6]; [23]): 0
Plant response rating, Oat, Wild (oat, wild [6]; [24]): 70
Plant response rating, Pigweed, Palmer (pigweed, palmer [7]; [23]): 20
Plant response rating, Pigweed, Palmer (pigweed, palmer [7]; [24]): 90
Plant response rating, Ragweed (ragweed [8]; [23]): 0
Plant response rating, Ragweed (ragweed [8]; [24]): 0
Plant response rating, Ryegrass, Italian (ryegrass, Italian [9]; [23]): 50
Plant response rating, Ryegrass, Italian (ryegrass, Italian [9]; [24]): 90
Plant response rating, Soybean (soybean [10]; [23]): 0
Plant response rating, Soybean (soybean [10]; [24]): 0
Plant response rating, Wheat (wheat [11]; [23]): 0
Plant response rating, Wheat (wheat [11]; [24]): 10
Plant response rating, Blackgrass (blackgrass [12]; [25]): 30
Plant response rating, Blackgrass (blackgrass [12]; [26]): 70
Plant response rating, Corn (corn [13]; [25]): 10
Plant response rating, Corn (corn [13]; [27]): 10
Plant response rating, Foxtail, Giant (foxtail, giant [14]; [25]): 10
Plant response rating, Foxtail, Giant (foxtail, giant [14]; [27]): 30
Plant response rating, Goosegrass (goosegrass [15]; [25]): 10
Plant response rating, Goosegrass (goosegrass [15]; [27]): 10
Plant response rating, Kochia (kochia [16]; [25]): 10
Plant response rating, Kochia (kochia [16]; [27]): 60
Plant response rating, Oat, Wild (oat, wild [17]; [27]): 10
Plant response rating, Pigweed, Palmer (pigweed, palmer [18]; [27]): 70
Plant response rating, Ragweed (ragweed [19]; [27]): 0
Plant response rating, Ryegrass, Italian (ryegrass, Italian [20]; [27]): 30
Plant response rating, Soybean (soybean [21]; [27]): 100
Plant response rating, Wheat (wheat [22]; [27]): 20
Plant response rating, Galium (galium; [25]): 50
Plant response rating, Galium (galium; [27]): 80
Plant response rating, Horseweed (horseweed; [25]): 0
Plant response rating, Horseweed (horseweed; [27]): 0
Plant response rating, Barnyardgrass (barnyardgrass): 0
Plant response rating, Ducksalad (ducksalad): 0
Plant response rating, Rice (rice): 0
Plant response rating, Sedge, Umbrella (sedge, umbrella): 0

Cc1cccc2c1O[C@@H](C)CN2C(=O)c1cccc(-n2cnc(C3CC3)n2)c1 [Compound 54]
Plant response rating, Blackgrass (blackgrass [1]; [23]): 40
Plant response rating, Blackgrass (blackgrass [1]; [24]): 80
Plant response rating, Corn (corn [2]; [23]): 30
Plant response rating, Corn (corn [2]; [24]): 60
Plant response rating, Foxtail, Giant (foxtail, giant [3]; [23]): 90
Plant response rating, Foxtail, Giant (foxtail, giant [3]; [24]): 100
Plant response rating, Goosegrass (goosegrass [4]; [23]): 90
Plant response rating, Goosegrass (goosegrass [4]; [24]): 100
Plant response rating, Kochia (kochia [5]; [23]): 80
Plant response rating, Kochia (kochia [5]; [24]): 90
Plant response rating, Oat, Wild (oat, wild [6]; [23]): 20
Plant response rating, Oat, Wild (oat, wild [6]; [24]): 50
Plant response rating, Pigweed, Palmer (pigweed, palmer [7]; [23]): 60
Plant response rating, Pigweed, Palmer (pigweed, palmer [7]; [24]): 100
Plant response rating, Ragweed (ragweed [8]; [23]): 0
Plant response rating, Ragweed (ragweed [8]; [24]): 0
Plant response rating, Ryegrass, Italian (ryegrass, Italian [9]; [23]): 70
Plant response rating, Ryegrass, Italian (ryegrass, Italian [9]; [24]): 100
Plant response rating, Soybean (soybean [10]; [23]): 0
Plant response rating, Soybean (soybean [10]; [24]): 40
Plant response rating, Wheat (wheat [11]; [23]): 20
Plant response rating, Wheat (wheat [11]; [24]): 30
Plant response rating, Blackgrass (blackgrass [12]; [25]): 0
Plant response rating, Blackgrass (blackgrass [12]; [26]): 50
Plant response rating, Corn (corn [13]; [25]): 30
Plant response rating, Corn (corn [13]; [26]): 40
Plant response rating, Foxtail, Giant (foxtail, giant [14]; [25]): 70
Plant response rating, Foxtail, Giant (foxtail, giant [14]; [26]): 90
Plant response rating, Goosegrass (goosegrass [15]; [25]): 40
Plant response rating, Goosegrass (goosegrass [15]; [26]): 50
Plant response rating, Kochia (kochia [16]; [25]): 80
Plant response rating, Kochia (kochia [16]; [26]): 90
Plant response rating, Oat, Wild (oat, wild [17]; [25]): 20
Plant response rating, Oat, Wild (oat, wild [17]; [26]): 40
Plant response rating, Pigweed, Palmer (pigweed, palmer [18]; [25]): 50
Plant response rating, Pigweed, Palmer (pigweed, palmer [18]; [26]): 60
Plant response rating, Ragweed (ragweed [19]; [25]): 0
Plant response rating, Ragweed (ragweed [19]; [26]): 50
Plant response rating, Ryegrass, Italian (ryegrass, Italian [20]; [25]): 30
Plant response rating, Ryegrass, Italian (ryegrass, Italian [20]; [26]): 60
Plant response rating, Soybean (soybean [21]; [25]): 100
Plant response rating, Soybean (soybean [21]; [26]): 100
Plant response rating, Wheat (wheat [22]; [25]): 20
Plant response rating, Wheat (wheat [22]; [26]): 40
Plant response rating, Galium (galium; [25]): 100
Plant response rating, Galium (galium; [26]): 100
Plant response rating, Horseweed (horseweed; [25]): 0
Plant response rating, Horseweed (horseweed; [26]): 20
Plant response rating, Barnyardgrass (barnyardgrass): 25
Plant response rating, Ducksalad (ducksalad): 30
Plant response rating, Rice (rice): 30
Plant response rating, Sedge, Umbrella (sedge, umbrella): 90

CCc1ncn(-c2ccc(C)c(C(=O)N3C[C@H](C)Oc4c(C)cccc43)c2)n1 [Compound 98]
Plant response rating, Blackgrass (blackgrass [1]; [23]): 60
Plant response rating, Blackgrass (blackgrass [1]; [24]): 80
Plant response rating, Corn (corn [2]; [23]): 10
Plant response rating, Corn (corn [2]; [24]): 30
Plant response rating, Foxtail, Giant (foxtail, giant [3]; [23]): 100
Plant response rating, Foxtail, Giant (foxtail, giant [3]; [24]): 100
Plant response rating, Goosegrass (goosegrass [4]; [23]): 100
Plant response rating, Goosegrass (goosegrass [4]; [24]): 100
Plant response rating, Kochia (kochia [5]; [23]): 80
Plant response rating, Kochia (kochia [5]; [24]): 100
Plant response rating, Oat, Wild (oat, wild [6]; [23]): 70
Plant response rating, Oat, Wild (oat, wild [6]; [24]): 90
Plant response rating, Pigweed, Palmer (pigweed, palmer [7]; [23]): 100
Plant response rating, Pigweed, Palmer (pigweed, palmer [7]; [24]): 100
Plant response rating, Ragweed (ragweed [8]; [23]): 30
Plant response rating, Ragweed (ragweed [8]; [24]): 90
Plant response rating, Ryegrass, Italian (ryegrass, Italian [9]; [23]): 100
Plant response rating, Ryegrass, Italian (ryegrass, Italian [9]; [24]): 100
Plant response rating, Soybean (soybean [10]; [23]): 90
Plant response rating, Soybean (soybean [10]; [24]): 100
Plant response rating, Wheat (wheat [11]; [23]): 50
Plant response rating, Wheat (wheat [11]; [24]): 60
Blackgrass plant response rating (blackgrass [12]; [28]): 70
Plant response rating, Blackgrass (blackgrass [12]; [27]): 90
Corn plant response rating (corn [13]; [28]): 50
Plant response rating, Corn (corn [13]; [27]): 90
Foxtail, Giant plant response rating (foxtail, giant [14]; [28]): 90
Plant response rating, Foxtail, Giant (foxtail, giant [14]; [27]): 90
Goosegrass plant response rating (goosegrass [15]; [28]): 80
Plant response rating, Goosegrass (goosegrass [15]; [27]): 100
Kochia plant response rating (kochia [16]; [28]): 80
Plant response rating, Kochia (kochia [16]; [27]): 90
Oat, Wild plant response rating (oat, wild [17]; [28]): 80
Plant response rating, Oat, Wild (oat, wild [17]; [27]): 90
Pigweed, Palmer plant response rating (pigweed, palmer [18]; [28]): 90
Plant response rating, Pigweed, Palmer (pigweed, palmer [18]; [27]): 100
Ragweed plant response rating (ragweed [19]; [28]): 60
Plant response rating, Ragweed (ragweed [19]; [27]): 60
Ryegrass, Italian plant response rating (ryegrass, Italian [20]; [28]): 70
Plant response rating, Ryegrass, Italian (ryegrass, Italian [20]; [27]): 100
Soybean plant response rating (soybean [21]; [28]): 100
Plant response rating, Soybean (soybean [21]; [27]): 100
Wheat plant response rating (wheat [22]; [28]): 80
Plant response rating, Wheat (wheat [22]; [27]): 90
Galium plant response rating (galium; [28]): 100
Plant response rating, Galium (galium; [27]): 100
Horseweed plant response rating (horseweed; [28]): 30
Plant response rating, Horseweed (horseweed; [27]): 60
Plant response rating, Barnyardgrass (barnyardgrass): 45
Plant response rating, Ducksalad (ducksalad): 65
Plant response rating, Rice (rice): 30
Plant response rating, Sedge, Umbrella (sedge, umbrella): 90
